The results in this text go back to US10245261B2, “Substituted indol-5-ol derivatives and their therapeutic applications” (NantBioScience, Inc., priority 2013, dated 2019).

One test concerns the target Abl(h) (Homo sapiens, UniProt P00519). The test can be described thus: KinaseProfiler kinase assay. Type of test: biochemical.
The next test deals with T1, Aurora-A(h) (Homo sapiens, UniProt O14965).
T1 sequence (O14965 1-403): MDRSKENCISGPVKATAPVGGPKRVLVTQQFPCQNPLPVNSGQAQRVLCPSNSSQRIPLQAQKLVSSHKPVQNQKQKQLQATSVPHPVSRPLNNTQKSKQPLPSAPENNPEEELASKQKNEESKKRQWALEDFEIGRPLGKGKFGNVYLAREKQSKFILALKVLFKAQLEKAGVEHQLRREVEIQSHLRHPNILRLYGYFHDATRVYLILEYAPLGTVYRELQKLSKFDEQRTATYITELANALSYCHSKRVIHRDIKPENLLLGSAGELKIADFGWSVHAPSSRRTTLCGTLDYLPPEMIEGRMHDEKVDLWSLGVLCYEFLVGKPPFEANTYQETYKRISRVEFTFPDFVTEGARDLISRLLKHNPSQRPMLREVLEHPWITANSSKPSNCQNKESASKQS
Briefly: KinaseProfiler kinase assay. It is filed as biochemical. The following applies: for inhibition at 1 µM: read-out: % Inhibition @1 μM Auroro-A. A digest of the protocol: (§1)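 Buffer 20 mM MOPS, 1 mM EDTA, 0.01% Brij-35, 5% glycerol, 0.1% β-mercaptoethanol, 1 mg/mL BSA for compound dilution; reaction at pH 7.0 with [γ-33P]ATP, 40 min RT; filtermat/scintillation read-out; 0%/100% set by no-kinase and phosphopeptide wells.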

The target in a further test is T2, Flt3(h) (Homo sapiens, UniProt P36888).
T2 sequence (P36888 27-993): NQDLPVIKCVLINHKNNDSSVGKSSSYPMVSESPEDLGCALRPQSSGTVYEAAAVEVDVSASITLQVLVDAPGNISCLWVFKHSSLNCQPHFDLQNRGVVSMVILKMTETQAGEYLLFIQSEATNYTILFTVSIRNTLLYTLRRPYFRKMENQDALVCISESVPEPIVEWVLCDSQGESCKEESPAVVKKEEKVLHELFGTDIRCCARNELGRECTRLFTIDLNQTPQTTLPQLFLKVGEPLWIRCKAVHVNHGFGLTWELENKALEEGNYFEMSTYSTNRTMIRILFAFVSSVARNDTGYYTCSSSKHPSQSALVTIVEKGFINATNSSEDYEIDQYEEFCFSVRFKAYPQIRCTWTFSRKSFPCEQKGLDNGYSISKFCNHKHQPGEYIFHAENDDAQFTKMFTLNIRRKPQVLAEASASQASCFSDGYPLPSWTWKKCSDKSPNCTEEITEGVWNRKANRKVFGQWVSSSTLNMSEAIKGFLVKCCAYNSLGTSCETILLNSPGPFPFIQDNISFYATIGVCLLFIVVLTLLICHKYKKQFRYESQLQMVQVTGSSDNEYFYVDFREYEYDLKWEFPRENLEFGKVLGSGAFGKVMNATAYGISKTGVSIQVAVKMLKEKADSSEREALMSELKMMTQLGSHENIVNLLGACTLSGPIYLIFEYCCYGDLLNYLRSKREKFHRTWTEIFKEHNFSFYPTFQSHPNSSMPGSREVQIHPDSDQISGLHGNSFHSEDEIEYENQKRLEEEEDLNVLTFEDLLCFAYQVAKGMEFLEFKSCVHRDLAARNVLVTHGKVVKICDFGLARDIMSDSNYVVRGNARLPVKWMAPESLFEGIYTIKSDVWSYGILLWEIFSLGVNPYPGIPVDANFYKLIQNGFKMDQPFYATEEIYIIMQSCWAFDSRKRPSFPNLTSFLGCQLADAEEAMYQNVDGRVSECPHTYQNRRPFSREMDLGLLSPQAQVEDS
The test can be described thus: KinaseProfiler kinase assay. Type of test: biochemical. A digest of the protocol: as §1

The target of another test is Ret(h) (Homo sapiens, UniProt P07949). The test can be described thus: KinaseProfiler kinase assay. It is filed as biochemical. In outline:
as §1

For another test, the target named is cSRC(h) (Homo sapiens, UniProt P12931). The test can be described thus: KinaseProfiler kinase assay. Type of test: biochemical. A digest of the protocol: as §1
cSRC(h), sequence (P12931 whole entry): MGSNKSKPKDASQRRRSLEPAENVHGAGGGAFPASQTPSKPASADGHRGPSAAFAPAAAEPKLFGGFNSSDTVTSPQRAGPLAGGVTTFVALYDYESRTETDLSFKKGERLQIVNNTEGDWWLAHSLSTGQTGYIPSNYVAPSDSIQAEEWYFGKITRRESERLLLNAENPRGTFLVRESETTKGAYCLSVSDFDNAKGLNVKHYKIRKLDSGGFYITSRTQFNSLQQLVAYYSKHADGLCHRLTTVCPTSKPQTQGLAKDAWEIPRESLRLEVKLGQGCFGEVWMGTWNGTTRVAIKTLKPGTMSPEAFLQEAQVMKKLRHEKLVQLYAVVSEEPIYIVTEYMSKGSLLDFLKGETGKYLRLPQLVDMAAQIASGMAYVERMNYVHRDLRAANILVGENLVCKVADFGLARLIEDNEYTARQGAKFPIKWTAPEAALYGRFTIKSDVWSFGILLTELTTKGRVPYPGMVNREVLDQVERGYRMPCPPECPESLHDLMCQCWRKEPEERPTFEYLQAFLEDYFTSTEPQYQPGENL
The target in a further test is KDR(h) (Homo sapiens, UniProt P35968). The test can be described thus: KinaseProfiler kinase assay. Type of test: biochemical.
KDR(h), sequence (P35968 20-1356): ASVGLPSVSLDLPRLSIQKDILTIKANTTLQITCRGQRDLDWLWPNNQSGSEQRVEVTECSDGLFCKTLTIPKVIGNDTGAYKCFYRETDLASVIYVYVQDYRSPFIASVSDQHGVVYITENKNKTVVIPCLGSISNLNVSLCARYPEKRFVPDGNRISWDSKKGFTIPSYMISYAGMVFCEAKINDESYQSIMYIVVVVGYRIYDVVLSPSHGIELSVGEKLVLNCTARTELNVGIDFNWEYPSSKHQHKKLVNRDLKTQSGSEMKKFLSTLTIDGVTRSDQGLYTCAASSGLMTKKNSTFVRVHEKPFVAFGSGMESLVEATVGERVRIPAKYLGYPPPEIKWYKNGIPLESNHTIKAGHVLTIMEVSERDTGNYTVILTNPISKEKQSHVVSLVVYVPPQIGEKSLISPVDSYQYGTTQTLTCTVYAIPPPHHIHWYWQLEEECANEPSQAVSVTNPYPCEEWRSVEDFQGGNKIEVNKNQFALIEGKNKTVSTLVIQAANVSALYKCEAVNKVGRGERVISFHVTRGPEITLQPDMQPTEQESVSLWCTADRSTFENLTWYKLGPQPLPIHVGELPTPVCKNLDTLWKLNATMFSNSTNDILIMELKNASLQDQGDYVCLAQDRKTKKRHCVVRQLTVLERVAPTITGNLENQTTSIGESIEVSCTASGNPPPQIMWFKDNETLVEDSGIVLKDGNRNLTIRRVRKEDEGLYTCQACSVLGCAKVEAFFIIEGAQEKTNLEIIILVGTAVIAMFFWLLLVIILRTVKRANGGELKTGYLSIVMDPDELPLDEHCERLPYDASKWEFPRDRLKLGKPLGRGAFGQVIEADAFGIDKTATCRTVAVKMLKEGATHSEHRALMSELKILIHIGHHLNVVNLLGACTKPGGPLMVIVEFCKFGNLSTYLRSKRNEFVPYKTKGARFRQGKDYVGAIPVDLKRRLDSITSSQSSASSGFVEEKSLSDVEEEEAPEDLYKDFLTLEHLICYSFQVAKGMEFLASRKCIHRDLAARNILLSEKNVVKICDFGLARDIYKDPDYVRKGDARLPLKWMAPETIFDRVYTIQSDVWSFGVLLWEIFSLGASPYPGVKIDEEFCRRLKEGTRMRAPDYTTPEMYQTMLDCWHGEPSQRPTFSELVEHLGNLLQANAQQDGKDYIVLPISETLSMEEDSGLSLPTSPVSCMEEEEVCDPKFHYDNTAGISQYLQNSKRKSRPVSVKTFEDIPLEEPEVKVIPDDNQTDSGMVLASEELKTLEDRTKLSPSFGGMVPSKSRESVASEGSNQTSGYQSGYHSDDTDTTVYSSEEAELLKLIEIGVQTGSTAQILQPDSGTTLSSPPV
The test system of a further test is K562. Briefly: CellTiterBlue cell growth inhibition. Type of test: cell-based. Conditions: Homo sapiens; K562, 72 hours. Here is the method:
(§2) This example illustrated the proliferating cell growth inhibition of selected compounds from this invention. To do this, the cells were seeded into fresh Iscove's growth medium at a density of 0.4e6 cells/ml and grown in log phase for 24 hr. Cells were then resuspended in their fresh respective growth media at 0.1e^6 cells/ml and plated into 384 well black, clear-bottom microplates at 36 ul/well. Test compounds and controls were initially dissolved in DMSO at the desired concentration, then serially diluted to the assay buffer. These solutions were added and cells were incubated for 72 hours at 37° C. CellTiterBlue (Promega cat# G7572) was added on the Beckman FX. Plates were returned to the 37° C. CO2 incubator for 4 hr and then fluorescence was determined on the Victor plate reader. Data were processed using Microsoft Excel, and GI50 values were generated using Prism (GraphPad Software, San Diego, Calif.).

The subject of the next test is KU812. Briefly: CellTiterBlue cell growth inhibition. Conditions: Homo sapiens; KU812, 72 hours. It is filed as cell-based. Here is the method:
as §2
For orientation: The colour change of resazurin is a common sign of viable cells or microbes.

In the next test the test system is MV4.11. Briefly: CellTiterBlue cell growth inhibition. It is filed as cell-based. Conditions: Homo sapiens; MV4.11, 72 hours. The protocol: as §2
Another test relates to RS4.11. Briefly: CellTiterBlue cell growth inhibition. Type of test: cell-based. Conditions: Homo sapiens; RS4.11, 72 hours. The protocol:
as §2

Test [1] has as its system human MIAPaCa-2 pancreatic carcinoma xenograft. The test can be described thus: Pancreatic carcinoma xenograft in athymic nude mice. Type of test: in vivo, mouse. Conditions: MIAPaCa-2 xenograft, nude mice, single agent. The protocol: The objective of the third study was to evaluate antitumor activities of novel multiple-kinase inhibitor NTW-3475 in human MIAPaCa-2 pancreatic carcinoma xenograft in athymic nude-Faxn1 mice.
Four animals were randomly assigned to study groups. Each animal was weighed, and then injected subcutaneously in the left and right flank area with 0.1 ml of 5.0×10^7 MIAPaCa-2 cells per mL.
Each test or control animal was on a 5-day on, two-day off for two cycles treatment schedule with negative control vehicle, positive control Abraxane at 20 mg/kg or 25, 50 mg/kg of NTW-3475. Tumor growth was measured with a digital hand held caliper twice weekly (once tumor emerges) prior to the first dosing and then two to three times weekly until euthanized.
The objective of the third study was to evaluate antitumor activities of novel multiple-kinase inhibitor Compound 10, 11, 12, 53, 68, 82, 83, 88, and 90 in human MIAPaCa-2 pancreatic carcinoma xenograft in athymic nude-Faxn1 mice.
Each test or control animal was on a 5-day on, two-day off for three cycles treatment schedule with negative control vehicle or 40 mg/kg of Compound 10, 11, 12, 53, 68, 82, 83, 88 and 90. Tumor growth was measured with a digital hand held caliper twice weekly (once tumor emerges) prior to the first dosing and then two to three times weekly until euthanized.

A further test relates to AN3.CA. The test can be described thus: CellTiterBlue cell growth inhibition. Type of test: cell-based. The following applies: Homo sapiens, 72 hours. Here is the method: as §2
A further test has as its system TT. Briefly: CellTiterBlue cell growth inhibition. It is filed as cell-based. Conditions: Homo sapiens, 72 hours. Here is the method:
as §2

Ret(h), sequence (P07949 29-1114): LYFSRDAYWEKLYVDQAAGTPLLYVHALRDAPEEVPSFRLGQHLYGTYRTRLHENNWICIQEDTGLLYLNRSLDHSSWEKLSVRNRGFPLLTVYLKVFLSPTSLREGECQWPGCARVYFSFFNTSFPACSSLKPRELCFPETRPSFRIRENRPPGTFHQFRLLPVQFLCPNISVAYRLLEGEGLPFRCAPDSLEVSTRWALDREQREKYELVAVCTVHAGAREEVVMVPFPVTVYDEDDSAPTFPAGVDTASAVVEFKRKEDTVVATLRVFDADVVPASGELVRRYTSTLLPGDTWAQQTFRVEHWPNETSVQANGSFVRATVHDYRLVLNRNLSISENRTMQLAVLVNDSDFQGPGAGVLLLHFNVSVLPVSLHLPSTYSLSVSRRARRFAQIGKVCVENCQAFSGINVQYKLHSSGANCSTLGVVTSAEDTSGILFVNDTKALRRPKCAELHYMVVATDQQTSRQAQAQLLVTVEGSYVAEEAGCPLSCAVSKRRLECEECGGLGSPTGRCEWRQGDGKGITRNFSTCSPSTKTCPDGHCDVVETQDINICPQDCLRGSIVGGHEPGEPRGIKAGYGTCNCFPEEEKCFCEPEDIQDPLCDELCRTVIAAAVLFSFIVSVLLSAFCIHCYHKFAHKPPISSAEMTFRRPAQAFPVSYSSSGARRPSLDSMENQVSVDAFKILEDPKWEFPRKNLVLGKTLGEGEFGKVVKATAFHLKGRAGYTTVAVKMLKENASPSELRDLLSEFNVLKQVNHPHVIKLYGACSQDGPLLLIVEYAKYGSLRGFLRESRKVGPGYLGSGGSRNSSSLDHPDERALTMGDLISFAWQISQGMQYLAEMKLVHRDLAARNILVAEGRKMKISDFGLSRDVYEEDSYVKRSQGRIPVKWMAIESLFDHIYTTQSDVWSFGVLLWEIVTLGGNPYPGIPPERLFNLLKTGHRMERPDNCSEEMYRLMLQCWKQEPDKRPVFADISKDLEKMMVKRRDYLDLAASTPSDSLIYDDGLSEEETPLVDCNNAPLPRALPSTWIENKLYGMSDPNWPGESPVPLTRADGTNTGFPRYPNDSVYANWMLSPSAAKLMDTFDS
Abl(h), sequence (P00519 whole entry): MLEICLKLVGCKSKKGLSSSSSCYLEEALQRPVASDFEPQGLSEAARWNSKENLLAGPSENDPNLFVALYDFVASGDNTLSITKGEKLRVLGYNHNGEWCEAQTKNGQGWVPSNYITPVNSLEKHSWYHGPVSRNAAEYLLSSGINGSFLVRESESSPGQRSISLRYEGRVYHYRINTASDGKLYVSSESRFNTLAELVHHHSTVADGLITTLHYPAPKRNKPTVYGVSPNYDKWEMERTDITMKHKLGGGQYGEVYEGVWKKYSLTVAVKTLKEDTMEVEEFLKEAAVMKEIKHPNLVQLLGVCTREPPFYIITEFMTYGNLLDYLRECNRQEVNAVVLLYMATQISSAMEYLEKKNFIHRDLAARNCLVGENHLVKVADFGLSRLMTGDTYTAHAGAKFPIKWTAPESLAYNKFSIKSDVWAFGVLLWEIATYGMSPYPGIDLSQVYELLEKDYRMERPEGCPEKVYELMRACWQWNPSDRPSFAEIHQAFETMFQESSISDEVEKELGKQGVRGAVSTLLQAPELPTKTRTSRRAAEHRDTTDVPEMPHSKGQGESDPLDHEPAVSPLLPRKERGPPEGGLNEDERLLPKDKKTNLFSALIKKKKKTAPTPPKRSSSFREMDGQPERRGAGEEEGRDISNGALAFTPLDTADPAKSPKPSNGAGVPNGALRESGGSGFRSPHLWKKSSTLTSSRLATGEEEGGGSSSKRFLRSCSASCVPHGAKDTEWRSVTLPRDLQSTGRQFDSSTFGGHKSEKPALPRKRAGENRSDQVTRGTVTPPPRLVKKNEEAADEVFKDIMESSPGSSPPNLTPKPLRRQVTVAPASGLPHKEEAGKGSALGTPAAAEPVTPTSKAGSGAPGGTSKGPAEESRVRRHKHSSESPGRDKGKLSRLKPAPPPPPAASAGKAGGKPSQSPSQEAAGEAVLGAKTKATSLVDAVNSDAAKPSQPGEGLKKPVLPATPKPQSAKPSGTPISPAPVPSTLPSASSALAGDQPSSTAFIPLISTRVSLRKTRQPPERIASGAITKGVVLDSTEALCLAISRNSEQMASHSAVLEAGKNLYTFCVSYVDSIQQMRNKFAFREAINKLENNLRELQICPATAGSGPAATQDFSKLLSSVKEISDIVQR

What is called inhibition is the drop in the measured response relative to a control, in per cent. A word on the IC50: it is the concentration at which inhibition is half-maximal. The term GI50 denotes the concentration at which growth is held to half of that of the control. A higher GI50 goes with lower sensitivity of the cells. Regarding `Cc1cc2c(F)c(Oc3nc(Nc4cc(C5CC5)[nH]n4)cc(N4CCN(CCO)CC4)n3)ccc2[nH]1` [Compound 12], the inhibition at 1 µM against Abl(h) was found to be 112%; on Aurora-A(h) it was 100%; against Flt3(h), 100%; at Ret(h), 101%; on cSRC(h) it was 100%; on KDR(h), 96%. Moreover, the half-inhibitory concentration (IC50) was determined as 0.5 nM at Abl(h) (read-out: IC50 (nM) Abl (h)); 2 nM at Aurora-A(h) (read-out: IC50 (nM) Auroro-A (h)); 0.3 nM on Flt3(h) (read-out: IC50 (nM) Flt3 (h)); 1 nM on Ret(h) (read-out: IC50 (nM) Ret (h)); 2 nM at cSRC(h) (read-out: IC50 (nM) cSrc (h)). The GI50 with K562 was determined as 0.28 nM; in the test with KU812, 0.27 nM; in the test with MV4.11, 0.41 nM; in the test on RS4.11, 3.22 nM. For the same compound, the anti-tumor effect result in [1] is given as “strong anti-tumor effect”.
For `Cc1cc2c(F)c(Oc3nc(Nc4cc(C5CC5)[nH]n4)cc(N4CCN(CCO)CC4)n3)cc(F)c2[nH]1` [Compound 83], the inhibition at 1 µM at Abl(h) is 110%; on Aurora-A(h), 100%; against Flt3(h), 99%; at Ret(h), 101%; against cSRC(h), 99%; against KDR(h) it was 96%. The GI50 is 0.55 nM in the test on K562, 0.67 nM in the test on KU812, 0.4 nM in the test on MV4.11 and 3.3 nM with RS4.11. For the same compound, the anti-tumor effect entry in test [1] was “strong anti-tumor effect”.
Turning to `C/C=C/c1cc(Nc2cc(N3CCNCC3)nc(Oc3cc(F)c4[nH]c(C)cc4c3F)n2)n[nH]1` [Compound 90], the inhibition at 1 µM against Abl(h) stood at 112%; at Aurora-A(h), 100%; against Flt3(h) it was 100%; against Ret(h), 99%; against cSRC(h) it was 101%; against KDR(h), 95%. The concentration for 50% growth inhibition (GI50) in the test with AN3.CA is 2 nM; in the test with K562, 0.85 nM; with KU812, 0.9 nM; with MV4.11 it was 0.13 nM; with RS4.11, 5.07 nM; in the test with TT it was 3.8 nM. For the same compound, in test [1], the anti-tumor effect entry is “strong anti-tumor effect”.
With `C/C=C/c1cc(Nc2cc(N3CCOCC3)nc(Oc3ccc4c(cc(C)n4C)c3F)n2)n[nH]1` [Compound 121], the inhibition at 1 µM at Abl(h) is 116%; on Aurora-A(h), 91%; at Flt3(h), 102%; at Ret(h), 102%; on cSRC(h), 104%; against KDR(h) it was 92%.
As to `Cc1cc2c(F)c(Oc3nc(Nc4cc(C5CC5)[nH]n4)cc(N4CCN(C)CC4)n3)ccc2n1C` [Compound 122], the inhibition at 1 µM was 109% against Abl(h); 101% at Aurora-A(h); 102% at Flt3(h); 101% against Ret(h); 104% against cSRC(h); 91% against KDR(h).
On to `Cc1cc2c(F)c(Oc3nc(Nc4cc(C5CC5)[nH]n4)cc(N4CCOCC4)n3)ccc2n1C` [Compound 123], for which the inhibition at 1 µM at Abl(h) was found to be 114%; on Aurora-A(h), 100%; against Flt3(h), 101%; against Ret(h) it was 102%; against cSRC(h) it was 104%; on KDR(h) it was 88%.
